Test: xn = mol fraction of the nth substance listed
Details: Liquid; for mass density: Vibrating tube method; for speed of sound: Frequency=3 MHz, Pulse-echo method

CCOC(F)(C(F)(F)C(F)(F)C(F)(F)F)C(F)(C(F)(F)F)C(F)(F)F (stereo not given) [2-trifluoromethyl-3-ethoxydodecafluorohexane] + CC(C)OC(C)C
Details	mass density, x1 = 0.25 [kg/m3]	mass density, x1 = 0.375 [kg/m3]	mass density, x1 = 0.5 [kg/m3]	mass density, x1 = 0.625 [kg/m3]	mass density, x1 = 0.75 [kg/m3]	speed of sound, x1 = 0.25 [m/s]	speed of sound, x1 = 0.375 [m/s]	speed of sound, x1 = 0.5 [m/s]	speed of sound, x1 = 0.625 [m/s]	speed of sound, x1 = 0.75 [m/s]
333.15 K, 100000 kPa	–	–	–	–	1580.9	–	–	–	–	–
333.15 K, 110000 kPa	1138.5	1274.2	1393.9	1499.9	1591.8	–	–	–	–	–
333.15 K, 120000 kPa	1146.4	1282.9	1403.2	1509.7	1602.1	–	–	–	–	–
333.15 K, 130000 kPa	1153.9	1291.2	1412.1	1519.2	1611.9	–	–	–	–	–
333.15 K, 140000 kPa	1160.9	1299	1420.5	1528.1	1621.2	–	–	–	–	–
343.15 K, 100 kPa	–	1091.4	1197	1291.8	1376.3	–	588	563	550.5	540.2
343.15 K, 10000 kPa	1000.6	1121.3	1229.2	1325.6	1411.1	–	–	–	–	–
343.15 K, 20000 kPa	1021.9	1145.1	1254.7	1352.4	1438.8	792.6	745.6	714	697.6	681.6
343.15 K, 30000 kPa	1039.6	1164.8	1275.9	1374.8	1462	–	–	–	–	–
343.15 K, 40000 kPa	1055.2	1182.1	1294.4	1394.4	1482.3	911.7	858.7	822.8	803.3	783.8
343.15 K, 50000 kPa	1068.8	1197.3	1310.8	1411.7	1500.3	–	–	–	–	–
343.15 K, 60000 kPa	1081.1	1210.9	1325.4	1427.3	1516.5	1007.3	949.5	911	889.2	867
343.15 K, 70000 kPa	1092.4	1223.4	1338.9	1441.4	1531.3	–	–	–	–	–
343.15 K, 80000 kPa	1102.8	1234.9	1351.3	1454.6	1544.9	1089.6	1026.7	987	963.1	938.2
343.15 K, 90000 kPa	1112.5	1245.7	1362.8	1466.8	1557.6	–	–	–	–	–
343.15 K, 100000 kPa	1121.5	1255.8	1373.5	1478.2	1569.5	1161.8	1095.1	1054.1	1028.7	1001.7
343.15 K, 110000 kPa	1130.1	1265.3	1383.8	1489.1	1580.8	–	–	–	–	–
343.15 K, 120000 kPa	1138.2	1274.2	1393.3	1499.3	1591.4	–	–	–	–	–
343.15 K, 130000 kPa	1145.9	1282.7	1402.5	1509.1	1601.6	–	–	–	–	–
343.15 K, 140000 kPa	1153.3	1290.7	1411.2	1518.2	1611.2	–	–	–	–	–
353.15 K, 100 kPa	–	–	–	1271.2	1355.1	–	–	–	–	512.6
353.15 K, 10000 kPa	986.5	1105.6	1212.9	1308.2	1393	–	–	–	–	–
353.15 K, 20000 kPa	1009.3	1131.2	1240.1	1337	1422.7	767.9	724.5	692.8	676.5	660.7
353.15 K, 30000 kPa	1028.2	1152.3	1262.7	1360.8	1447.4	–	–	–	–	–
353.15 K, 40000 kPa	1044.4	1170.2	1281.9	1381.2	1468.5	889.5	841.4	804.5	785.2	765.7
353.15 K, 50000 kPa	1058.7	1186	1298.8	1399.2	1487.3	–	–	–	–	–
353.15 K, 60000 kPa	1071.6	1200.3	1314.2	1415.5	1504.2	986.5	935.6	894	872.6	850.4
353.15 K, 70000 kPa	1083.3	1213.3	1328.1	1430.3	1519.5	–	–	–	–	–
353.15 K, 80000 kPa	1094.2	1225.2	1340.9	1443.9	1533.7	–	1015.6	971	947.8	923.1
353.15 K, 90000 kPa	1104.1	1236.2	1352.7	1456.5	1546.8	–	–	–	–	–
353.15 K, 100000 kPa	1113.4	1246.6	1363.8	1468.2	1559	1142.6	–	1039.1	1014.4	987.2
353.15 K, 110000 kPa	1122.1	1256.3	1374.2	1479.2	1570.4	–	–	–	–	–
353.15 K, 120000 kPa	1130.4	1265.4	1384.1	1489.7	1581.4	–	–	–	–	–
353.15 K, 130000 kPa	1138.3	1274.2	1393.5	1499.7	1591.7	–	–	–	–	–
353.15 K, 140000 kPa	1145.6	1282.4	1402.4	1509	1601.4	–	–	–	–	–
363.15 K, 10000 kPa	972.2	1089.6	1196.4	1290.3	1374.4	–	–	–	–	–
363.15 K, 20000 kPa	996.8	1117.1	1225.6	1321.2	1406.2	–	–	–	–	–
363.15 K, 30000 kPa	1016.8	1139.3	1249.3	1346.4	1432.1	–	–	–	–	–
363.15 K, 40000 kPa	1033.8	1158.1	1269.5	1367.8	1454.3	–	–	–	–	–
363.15 K, 50000 kPa	1048.7	1174.8	1287.3	1386.6	1473.8	–	–	–	–	–
363.15 K, 60000 kPa	1062	1189.6	1303.1	1403.4	1491.2	–	–	–	–	–

— the NIST ThermoML archive (doi:10.1016/j.jct.2018.08.005)
